# Assay results: article PMC12027946, “Ionic and Non-Ionic Counterparts Based on Bis(Uracilyl)Alkane Moiety with Highest Selectivity Towards Acetylcholinesterase for Protection Against Organophosphate Poisoning and Treating Alzheimer’s Disease” (International Journal of Molecular Sciences, 2025)
# Like-named read-outs stand apart in the source and are kept apart here.
# Tests used:
# human AChE [1] = target: T1, human AChE (Homo sapiens, UniProt P22303); conditions: Table 1, bisuracils 1a–f, cited from earlier work; for AChE Selectivity: (IC50 BuChE)/(IC50 AChE)
# T1 construct: purchased Sigma-Aldrich
# T1 sequence (P22303 32-614): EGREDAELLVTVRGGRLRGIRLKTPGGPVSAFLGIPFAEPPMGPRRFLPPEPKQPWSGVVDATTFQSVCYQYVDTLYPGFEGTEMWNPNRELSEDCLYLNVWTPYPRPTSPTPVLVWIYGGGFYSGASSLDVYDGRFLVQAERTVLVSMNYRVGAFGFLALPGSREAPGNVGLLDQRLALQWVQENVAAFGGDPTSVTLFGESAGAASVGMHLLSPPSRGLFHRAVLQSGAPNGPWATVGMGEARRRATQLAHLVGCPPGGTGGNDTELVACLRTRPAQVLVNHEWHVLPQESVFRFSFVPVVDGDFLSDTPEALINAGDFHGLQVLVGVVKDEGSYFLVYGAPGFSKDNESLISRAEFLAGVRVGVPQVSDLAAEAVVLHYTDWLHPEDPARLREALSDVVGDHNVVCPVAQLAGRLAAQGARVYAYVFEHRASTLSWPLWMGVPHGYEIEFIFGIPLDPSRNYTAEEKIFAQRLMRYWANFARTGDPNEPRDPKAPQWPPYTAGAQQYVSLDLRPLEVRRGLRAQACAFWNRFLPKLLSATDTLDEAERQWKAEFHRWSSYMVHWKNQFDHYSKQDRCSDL
# BChE from human plasma [2] = target: T2, BChE from human plasma (Homo sapiens, UniProt P06276); conditions: Table 1; bisuracils 1a–f; read-out: IC50 BuChE; cited from earlier work
# T2 construct: butyrylcholiesterase from human plasma; purchased Sigma-Aldrich; host or cells: human plasma
# T2 sequence (P06276 29-602): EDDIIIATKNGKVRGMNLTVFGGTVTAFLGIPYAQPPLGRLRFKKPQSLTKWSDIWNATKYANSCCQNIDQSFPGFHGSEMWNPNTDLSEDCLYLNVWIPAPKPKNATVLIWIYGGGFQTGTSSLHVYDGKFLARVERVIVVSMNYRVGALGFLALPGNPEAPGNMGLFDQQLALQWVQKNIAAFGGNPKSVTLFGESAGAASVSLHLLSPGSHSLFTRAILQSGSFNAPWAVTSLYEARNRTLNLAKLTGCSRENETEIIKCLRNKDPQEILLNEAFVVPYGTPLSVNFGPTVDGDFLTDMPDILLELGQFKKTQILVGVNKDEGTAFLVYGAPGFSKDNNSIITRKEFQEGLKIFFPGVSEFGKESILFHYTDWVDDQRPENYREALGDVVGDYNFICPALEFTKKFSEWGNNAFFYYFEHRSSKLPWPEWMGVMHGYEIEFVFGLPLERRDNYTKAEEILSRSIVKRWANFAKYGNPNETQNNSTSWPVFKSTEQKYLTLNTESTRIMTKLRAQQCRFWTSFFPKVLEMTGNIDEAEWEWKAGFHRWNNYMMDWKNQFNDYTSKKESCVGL
# BChE from human plasma [3] = target: T2, BChE from human plasma; test: In vitro cholinesterase inhibition (Ellman), BuChE; format: biochemical; conditions: read-out: IC50 BuChE
# Procedure: (§1) Inhibitory activities of the tested compounds against AChE and BChE were measured according to Ellman et al.. Enzyme-catalysed hydrolysis of ATCHh was carried out at 25 °C in 0.1 M phosphate buffer (pH 8.0) containing 0.25 U AChE, 1 mM ATCHh as substrates, and 0.1 mM of DTNB. In experiments with BuChE, 0.1 M phosphate buffer (pH 7.0) and BuTChh as a substrate were used. The tested compounds were pre-incubated with the enzyme for two minutes prior to the addition of the substrate and the subsequent recording of hydrolysis kinetics. […] A sample without an inhibitor was used as a control (100% cholinesterase activity). A sample without a substrate was used as a blank. Experiments were performed in triplicate.
# human AChE [4] = target: T1, human AChE; test: In vitro cholinesterase inhibition (Ellman), AChE; format: biochemical; conditions: for AChE Selectivity: (IC50 BuChE)/(IC50 AChE); for IC50: read-out: IC50 AChE
# Procedure: as §1
# [5] = test system: mice poisoned with 2×LD50 of POX; test: Protection against POX toxicity (pre-treatment); format: in vivo; conditions: for relative risk of death (RRD): Cox analysis over 10 h
# Procedure: The concept of using reversible AChE inhibition as a preventive strategy to enhance the efficacy of traditional antidotes in OP poisoning is a well-established principle. This study explores the potential of bisuracil 2b as a preventive agent to protect AChE from irreversible inhibition caused by paraoxon (POX), a model OP. […] Following POX administration, the standard antidote atropine was given at a dose of 15 mg/kg within one minute. […] Increasing the dose of bisuracil 2b reduced the protective effect in POX poisoned animals (Table 3).
# We also estimated the relative risk of death (RRD) as a function of precocity (from min to hours) over a period of 10 h by Cox survival analysis. Statistical differences in the number of surviving animals between experimental groups were tested using the Cox–Mantel multisample logarithmic rank criterion. It was shown that, in mice exposed to 0.42 mg/kg of POX, RRD = 1 (Figure 5). However, in animals that received atropine within 1 min after poisoning, POX-induced mortality was lower (RRD = 0.5; Figure 5).
# The tested compound was administered via i.p. before POX injection.
# [6] = Table 1, BChE from human plasma, pH 7.0
# [7] = Table 1, recombinant human AChE, 25 °C, pH 8.0
smiles,measurement,setting,value
CC[N+](CC)(CCCCCn1c(=O)ccn(CCCCCn2c(C)cc(=O)n(C)c2=O)c1=O)Cc1ccccc1[N+](=O)[O-] [1a],AChE Selectivity,human AChE [1],"112,676"
same,IC50,human AChE [1],0.0004 ± 3e-05 µM
same,IC50,BChE from human plasma [2],40 µM
CC[N+](CC)(CCCCCn1c(=O)ccn(CCCCn2c(C)cc(=O)n(C)c2=O)c1=O)Cc1ccccc1C(F)(F)F [1d],AChE Selectivity,human AChE [1],"200,000"
same,IC50,human AChE [1],0.001 ± 0.0001 µM
same,IC50,BChE from human plasma [2],200 µM
"CC[N+](CC)(CCCCCn1c(=O)ccn(CCCCCn2c(C)cc(=O)n(C)c2=O)c1=O)Cc1ccccc1C#N [2c, 1,5-{(3,6-Dimethyluracil-1-yl)-[3-(5-o-nitrilebenzyl(diethyl)ammonio)pentyl)-uracil-1-yl]}pentane bromide]",IC50,BChE from human plasma [3]; [6],70 µM
same,AChE Selectivity,human AChE [4]; Table 1,"388,888"
same,IC50,human AChE [4]; [7],0.0002 ± 6e-05 µM
"CC[N+](CC)(CCCCCn1c(=O)ccn(CCCn2c(C)cc(=O)n(C)c2=O)c1=O)Cc1ccccc1C#N [2a, 1,3-{(3,6-Dimethyluracil-1-yl)-[3-(5-o-nitrilebenzyl(diethyl)ammonio)pentyl)-uracil-1-yl]}propane bromide]",IC50,BChE from human plasma [3]; [6],370 µM
same,IC50,human AChE [4]; [7],0.0003 ± 3e-05 µM
CC[N+](CC)(CCCCCn1c(=O)ccn(CCCCCCn2c(C)cc(=O)n(C)c2=O)c1=O)Cc1ccccc1[N+](=O)[O-] [1b],AChE Selectivity,human AChE [1],"60,000"
same,IC50,human AChE [1],0.0001 ± 1e-05 µM
same,IC50,BChE from human plasma [2],6 ± 0.43 µM
"CCOP(=O)(OCC)Oc1ccc([N+](=O)[O-])cc1 [POX, paraoxon, reference compound]",relative risk of death (RRD),[5]; POX 0.42 mg/kg alone,1
same,n/N (mice surviving 5 days after POX poisoning / total),[5]; POX 0.42 mg/kg i.p. (2×LD50) alone,0/12
"CC[N+](CC)(CCCCCn1c(=O)ccn(CCCCCCn2c(C)cc(=O)n(C)c2=O)c1=O)Cc1ccccc1C#N [2d, 1,6-{(3,6-Dimethyluracil-1-yl)-[3-(5-o-nitrilebenzyl(diethyl)ammonio)pentyl)-uracil-1-yl]}hexane bromide]",IC50,BChE from human plasma [3]; [6],30 µM
same,AChE Selectivity,human AChE [4]; Table 1,"57,034"
same,IC50,human AChE [4]; [7],0.0005 ± 0.00016 µM
CCN(CCCCCn1c(=O)ccn(CCCCCCn2c(C)cc(=O)n(C)c2=O)c1=O)Cc1ccccc1C#N [3d],IC50,"BChE from human plasma [3]; Table 2, human BuChE",95 µM
same,IC50,"human AChE [4]; Table 2, human AChE",0.0054 ± 0.0007 µM
CC[N+](CC)(CCCCCn1c(=O)ccn(CCCCCCn2c(C)cc(=O)n(C)c2=O)c1=O)Cc1ccccc1C(F)(F)F [1f],AChE Selectivity,human AChE [1],"200,000"
same,IC50,human AChE [1],0.0002 ± 1e-05 µM
same,IC50,BChE from human plasma [2],40 µM
CC[N+](CC)(CCCCCn1c(=O)ccn(CCCCCn2c(C)cc(=O)n(C)c2=O)c1=O)Cc1ccccc1C(F)(F)F [1e],AChE Selectivity,human AChE [1],"120,000"
same,IC50,human AChE [1],0.0005 ± 3e-05 µM
same,IC50,BChE from human plasma [2],60 µM
CCN(CCCCCn1c(=O)ccn(CCCCn2c(C)cc(=O)n(C)c2=O)c1=O)Cc1ccccc1C#N [3b],IC50,"BChE from human plasma [3]; Table 2, human BuChE",48.3 µM
same,AChE Selectivity,human AChE [4]; Table 2,6090
same,IC50,"human AChE [4]; Table 2, human AChE",0.0079 ± 0.00025 µM
CCN(CCCCCn1c(=O)ccn(CCCn2c(C)cc(=O)n(C)c2=O)c1=O)Cc1ccccc1C#N [3a],IC50,"BChE from human plasma [3]; Table 2, human BuChE",69.1 µM
same,AChE Selectivity,human AChE [4]; Table 2,"11,290"
same,IC50,"human AChE [4]; Table 2, human AChE",0.0061 ± 0.0007 µM
"CN1[C@@H]2CC[C@H]1C[C@@H](OC(=O)C(CO)c1ccccc1)C2 (some centres unmarked) [Atropine, atropine, reference compound]",n/N (mice surviving 5 days after POX poisoning / total),"[5]; atropine 15 mg/kg i.p. 1 min after POX 0.42 mg/kg i.p., no pre-treatment",6/12
same,relative risk of death (RRD),[5]; atropine within 1 min after POX,0.5
CC[N+](CC)(CCCCCn1c(=O)ccn(CCCn2c(C)cc(=O)n(C)c2=O)c1=O)Cc1ccccc1C(F)(F)F [1c],AChE Selectivity,human AChE [1],"220,000"
same,IC50,human AChE [1],0.002 ± 0.0002 µM
same,IC50,BChE from human plasma [2],440 µM
